Data on 4 substances can be found in PMC12808100, “The non-catalytic DNA polymerase ε subunit is an NPF motif recognition protein” (Nature Communications, 2025).

In the assay the target is His6-avi-MBP-tagged POLE2. The experiment in a line: Single-point nHU-MS with recombinant His6-avi-MBP-POLE2 bait, Jurkat extract. To be noted: significant apparent affinity of endogenous prey protein for POLE2 bait; single-point nHU-MS; Figure S11. Type of assay: binding, human. The source says: So far, our study only focused on a few hand-picked NPF motifs and studied them as short synthetic peptides. However, many other proteins may be present in the proteome that could bind to POLE2 and their putative NPF motifs are embedded in their natural structures that can greatly affect their binding properties. To investigate interactions between POLE2 and intact, full length proteins proteome-wide, we used nHU-MS experiments with recombinant His6-avi-MBP-tagged POLE2 as bait and purified His6-avi-MBP as a control. Even though we are aware that this recombinant POLE2 may bind to NPF motifs with a somewhat altered affinity, we assumed that this would affect all NPF motif-mediated interactions equally, allowing an unbiased affinity ranking of all identified partners. Single point nHU measurements were performed at 26 μM POLE2 concentration and the recovered supernatant was measured by label free proteomic MS measurements (Fig. 3A, Supplementary Figs. 8A, 9, Supplementary Data 1).
Single-point nHU experiments with protein baits were carried out nearly identically with two key modifications. First, the resin saturation step was carried out by mixing 50 μl streptavidin resin with 0.5−1 ml 50 μM biotinylated protein solution and the mixture was incubated for 1.5 h at 4 °C with constant agitation. Second, instead of using estimated bait concentrations, we measured it experimentally. An extra aliquot of resin stock was prepared alongside the nHU samples that were identically processed that were used to eluate the immobilized proteins under harsh conditions, in order to experimentally quantify the Cbait by using densitometry of Coomassie stained SDS-PAGE that included a protein calibration series. For this, 50 μl bait-saturated resin aliquots were mixed with 200 μl 4x Laemmli Sample Buffer (120 mM Tris-HCl pH 7, 8% SDS, 100 mM DTT, 32% glycerol, 0.004% bromphenol blue, 1% β-mercaptoethanol), instead of cell extract. After 15 min incubation at 95 °C, these samples were analyzed by SDS-PAGE using protein calibration standard, made from recombinant MBP. Densitometry was carried out after Coomassie staining on raw Tif images by using Fiji ImageJ 1.53c and experimental bait concentration were determined by adjusting for molecular weight differences between MBP and MBP-POLE2 constructs.
Samples were digested overnight at 37 °C.

As to “HARISSTSHT [TRIP11, endogenous full length prey protein]”, the pKapp_sign came to 4.056.

Turning to KSVD [MYCBP2], the pKapp_sign amounted to 4.444.

“TSSTPE [AGFG1, endogenous full length prey protein]”: the pKapp_sign is on record as 4.872.

NSVD [GYS1]: the pKapp_sign turned out to be 4.403.
